The values that follow come from PMC5610242, “Stapled peptide inhibitors of RAB25 target context-specific phenotypes in cancer” (Nature Communications, 2017).

For data set [1], the system named is all cell lines tested (HEY, MCF7, MDA-MB231). The data set can be described thus: Toxicity seen in wound healing studies. The data set is classed as cell-based. The conditions noted are these: 10 μM. On the procedure: Cells were seeded at a density of 5000–7000 cells for HEY and MDA-MB231 or 15,000 cells for MCF7 on each side of an Ibidi culture insert (Ibidi, Munich, Germany), with a 500 μm separation between each side of the well, and allowed to grow for 24 h to attain a compact monolayer. Cells were pretreated with, or without, RFP peptides (10 μM) or DMSO control for 12 h before removal of the insert, and following removal of the insert cells were incubated in RFP-containing media or DMSO control for the duration of wound closure. Cells were photographed using a Life Technologies EVOS XL Core imaging system 4× or a Nikon DS camera connected to a Nikon Eclipse Ti microscope objective at insert removal (0 h) and when wound closure was complete under control conditions. Experiments were performed in duplicate and a minimum of four fields of the injury were photographed and used for quantification.

The target of data set [2] is T1, H6-RAB25:bio-RFP14 complex (Homo sapiens, UniProt P57735).
T1 construct: His6-RAB25 (1–180) in pET28; made in house; host or cells: E. coli BL21
T1 sequence (P57735 1-180): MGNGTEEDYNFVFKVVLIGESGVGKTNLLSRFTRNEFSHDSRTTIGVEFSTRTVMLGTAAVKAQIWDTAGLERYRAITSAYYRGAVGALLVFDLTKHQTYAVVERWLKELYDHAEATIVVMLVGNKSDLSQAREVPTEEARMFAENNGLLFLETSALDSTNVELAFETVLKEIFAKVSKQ
Briefly: ALPHAscreen competitive inhibition of RAB25:RFP14 complex formation. The data set is classed as binding. The note with it: H6-RAB25 0.2 μM and bio-RFP14 0.2 μM, mean with 95% C.I., triplicate.

A further data set deals with T2, RAB25 (Homo sapiens, UniProt P57735).
T2 construct: GST-RAB25 (1–180) in pET41 Ek/LIC; made in house; host or cells: E. coli BL21
T2 sequence (P57735 1-180): T1 sequence (P57735 1-180)
Briefly: Fluorescence polarization binding of FITC-labeled RFP peptides to RAB25. The conditions noted are these: FP, 10 nM FITC-ligand, GST-RAB25, FP buffer pH 8.0 with 10 μM GTP, 30 min room temperature; mean with 95% C.I., triplicate; read-out: apparent Kd (95% C.I.) RAB25. On the procedure:
(§1) Fluorescence polarization assays were performed with for GST-RAB25 and GST-RAB11a to quantify binding to FITC-labeled unmodified and stapled RFP peptides. Initial fluorescence polarization measurements for RFP1−RFP13 were made by incubating FITC-RFP peptides (25 nM) with threefold dilutions of a given protein in FP buffer, consisting of 20 mM Tris pH 8.0, 150 mM NaCl, 5 mM MgCl2, 2 mM DTT, 10 μM GTP and 2% glycerol. Dilutions and incubations were performed in 96-well, black flat-bottom plates (Nunc) to a total volume of 100 μL, and equilibrated at room temperature for 30 min. Polarization was measured on a Spetramax-M5 multi-label plate reader (Molecular Devices) with λ ex = 485 nm and λ em = 525 nm. Polarization values were determined using the equation: P = (V − H)/(V + H), where P denotes polarization, V denotes vertical emission intensity and H represents horizontal emission intensity. Fraction bound was calculated using the equilibrium maximum polarization value obtained for a given protein among ligands, to which background-subtracted fluorescence polarization values were internally normalized. Fluorescence polarization measurements for FITC-RFP14, 24, 26, 31, and 32 were performed as detailed above with the exception that 10 nM FITC-ligand was used.

In data set [3] the target is T3, RAB11a (activated Q70L mutant) (Homo sapiens, UniProt P62491, Q70L).
T3 construct: GST-RAB11a (1–173, Q70L mutant) in pGEX5x-1; made in house; host or cells: E. coli BL21
T3 sequence (P62491 1-173 Q70L): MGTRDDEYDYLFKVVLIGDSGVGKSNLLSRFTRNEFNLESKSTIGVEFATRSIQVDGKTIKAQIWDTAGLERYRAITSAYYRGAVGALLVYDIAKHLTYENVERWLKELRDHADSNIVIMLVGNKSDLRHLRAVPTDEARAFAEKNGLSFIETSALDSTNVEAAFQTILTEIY
The data set can be described thus: Fluorescence polarization binding of FITC-labeled RFP peptides to RAB11a. The conditions noted are these: FP, 10 nM FITC-ligand, GST-RAB11a (1–173, Q70L), FP buffer pH 8.0 with 10 μM GTP, 30 min room temperature; mean with 95% C.I., triplicate; read-out: apparent Kd (95% C.I.) RAB11a. On the procedure: as §1

Molecules are shown by their SMILES. Bridge positions count the residues as written; N and C are the ends. Square brackets hold non-standard residues; d marks the D form. Peptide text beside a SMILES is read from it. S5 = C=CCCC[C@](C)(N)C(=O)O; Nle = CCCC[C@H](N)C(=O)O; βAla = NCCC(=O)O

With `CCCC[C@H](NC(=O)[C@@H](NC(=O)[C@H](CCCNC(=N)N)NC(=O)[C@@H](NC(=O)[C@@H](NC(=O)[C@]1(C)CCCC=CCCC[C@](C)(NC(=O)[C@H](CC(N)=O)NC(=O)[C@H](CCC(N)=O)NC(=O)[C@H](CC(C)C)NC(=O)[C@H](CCCNC(=N)N)NC(=O)[C@H](Cc2ccccc2)NC(=O)[C@H](CC(N)=O)NC(=O)[C@@H](NC(=O)[C@H](CCCNC(=N)N)NC(=O)CCNC(=O)[C@@H](N)Cc2c[nH]c3ccccc23)[C@@H](C)CC)C(=O)N[C@@H]([C@@H](C)CC)C(=O)N[C@@H](CC(=O)O)C(=O)N[C@@H](CCCNC(=N)N)C(=O)N1)[C@@H](C)CC)C(C)C)[C@@H](C)CC)C(=O)N[C@@H](CCC(=O)O)C(=O)N[C@H](C(=O)N[C@@H](CC(N)=O)C(=O)N1CCC[C@H]1C(=O)N[C@@H](CO)C(=O)N[C@H](C(=O)N[C@@H](CC(C)C)C(=O)N[C@@H](CCCNC(=N)N)C(=O)N[C@H](C(=O)N[C@@H](CCCCN)C(N)=O)C(C)C)[C@@H](C)CC)[C@@H](C)O` [RFP26] (H-W[βAla]RINFRLQN[S5]IDR[S5]IVRI[Nle]ETNPSILRVK-NH2; staple 11-15), in data set [1], the “toxicity in wound healing studies” value is recorded as “considerable toxicity”.
`CC[C@H](C)[C@H](NC(=O)[C@H](CCCNC(=N)N)NC(=O)[C@H](C)NC(=O)[C@H](C)NC(=O)[C@]1(C)CCCC=CCCC[C@](C)(NC(=O)[C@H](CC(N)=O)NC(=O)[C@H](CCC(N)=O)NC(=O)[C@H](CC(C)C)NC(=O)[C@H](CCCNC(=N)N)NC(=O)[C@H](Cc2ccccc2)NC(=O)[C@H](CC(N)=O)NC(=O)[C@@H](NC(=O)[C@H](CCCNC(=N)N)NC(=O)CCNC(=O)[C@@H](N)Cc2c[nH]c3ccccc23)[C@@H](C)CC)C(=O)N[C@@H]([C@@H](C)CC)C(=O)N[C@@H](CC(=O)O)C(=O)N[C@@H](CCCNC(=N)N)C(=O)N1)C(=O)N[C@@H](C)C(=O)N[C@@H](CCC(=O)O)C(=O)N[C@H](C(=O)N[C@@H](CC(N)=O)C(=O)N1CCC[C@H]1C(=O)N[C@@H](CO)C(=O)N[C@H](C(=O)N[C@@H](CC(C)C)C(=O)N[C@@H](CCC(=O)O)C(=O)N[C@H](C(=O)N[C@@H](CCCCN)C(N)=O)C(C)C)[C@@H](C)CC)[C@@H](C)O` [RFP31] (H-W[βAla]RINFRLQN[S5]IDR[S5]AARIAETNPSILEVK-NH2; staple 11-15): in data set [2], the IC50 turned out to be 3.3 µM. Also, the Kd (on RAB25; in data set [3]) was more than 5 µM each time.

As a reminder, the IC50 is the point on the concentration scale where inhibition reaches its midpoint. High values mean a need for much substance, low ones inhibition by little substance.
